Reference: PMC2865582 (Journal of medicinal chemistry, 2010)

Molecular target: T1, human GVIA iPLA2 (Homo sapiens, UniProt O60733)
T1 sequence (O60733 1-806): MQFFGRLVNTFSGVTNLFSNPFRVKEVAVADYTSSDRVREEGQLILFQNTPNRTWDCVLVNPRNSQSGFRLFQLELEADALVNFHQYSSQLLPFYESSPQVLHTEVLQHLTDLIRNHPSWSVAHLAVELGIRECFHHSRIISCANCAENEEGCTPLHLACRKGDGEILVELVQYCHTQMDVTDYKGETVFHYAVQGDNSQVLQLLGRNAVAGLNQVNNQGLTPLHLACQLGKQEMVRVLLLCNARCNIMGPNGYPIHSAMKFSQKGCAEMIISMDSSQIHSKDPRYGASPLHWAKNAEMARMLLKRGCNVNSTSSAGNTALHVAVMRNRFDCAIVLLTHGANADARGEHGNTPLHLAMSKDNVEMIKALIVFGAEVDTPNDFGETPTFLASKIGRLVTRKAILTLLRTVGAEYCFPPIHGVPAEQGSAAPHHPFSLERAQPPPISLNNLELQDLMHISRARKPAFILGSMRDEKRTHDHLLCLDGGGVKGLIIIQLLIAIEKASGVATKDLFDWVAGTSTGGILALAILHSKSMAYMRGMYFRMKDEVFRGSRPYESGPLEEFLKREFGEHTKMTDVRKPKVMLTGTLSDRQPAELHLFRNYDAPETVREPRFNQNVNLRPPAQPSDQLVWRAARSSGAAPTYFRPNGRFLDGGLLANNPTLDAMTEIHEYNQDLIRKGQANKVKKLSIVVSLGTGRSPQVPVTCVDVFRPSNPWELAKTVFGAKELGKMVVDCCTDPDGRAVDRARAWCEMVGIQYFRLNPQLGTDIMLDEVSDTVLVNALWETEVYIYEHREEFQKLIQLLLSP
Experiment: Mixed micelle-based
Format: biochemical

[1] = XI(50) compared with inhibitor 2

Row | Structure (SMILES) | times less potent on GVIA iPLA2 than inhibitor 2 [1] [times] | further results
1 | O=C(/C=C/C=C/c1ccccc1)C(F)(F)C(F)(F)F [compound 10, (4E,6E)-1,1,1,2,2-Pentafluoro-7-phenylhepta-4,6-dien-3-one] | 22 | –
2 | O=C(CCCCc1ccc2ccccc2c1)C(F)(F)F [12g, 1,1,1-Trifluoro-6-(naphthalen-2-yl)hexan-2-one] | – | times higher inhibition of GVIA iPLA2 than inhibitor 2 [1]: 7 times
3 | O=C(CCCCc1ccccc1)C(F)(F)C(F)(F)F [compound 2, 1,1,1,2,2-pentafluoro-7-phenylheptan-3-one] | – | inhibition at 0.091 mole fraction (read-out: GVIA iPLA2 % Inhibition): 99.4 ± 0.1%
4 | O=C(CCCOc1ccccc1)C(F)(F)C(F)(F)F [12a, 1,1,1,2,2-Pentafluoro-6-phenoxyhexan-3-one] | 2.5 | –
